The values below are quoted from earlier work in US20150174235A1, “VACCINE” (Bionor Immuno AS, priority 2012, published 2015).

For this data set, the system named is HIV-specific T-cells. The following applies: for IL-2 production by CD8 T-cells / lytic capacity of polyfunctional HIV specific CD8+ T cells / number of polyfunctional CD4+ T-cells / proliferation of CD4+ T cells / Gag antigen epitopes recognized: IMiD present during in vitro T-cell stimulation; for Gag antigen epitopes recognized: also at lower antigen peptide concentrations; for IFN-γ production by CD8+ T-cells and CD4 T-cells: after antigen stimulation, IMiD present.

As to `Nc1cccc2c1C(=O)N(C1CCC(=O)NC1=O)C2=O` (stereo not drawn) [pomalidomide], the “IL-2 production by CD8 T-cells” value is “increased”, the “lytic capacity of polyfunctional HIV specific CD8+ T cells” value was “enhanced”, the “number of polyfunctional CD4+ T-cells” value is listed as “increased” and the “proliferation of CD4+ T cells” value is listed as “reduced”. Also, the “Gag antigen epitopes recognized” value is given as “more”; the “IFN-γ production by CD8+ T-cells and CD4 T-cells” value is on record as “detectable”.
For `Nc1cccc2c1CN(C1CCC(=O)NC1=O)C2=O` (stereo not drawn) [Lenalidomide], the “IL-2 production by CD8 T-cells” value is reported as “increased”, the “lytic capacity of polyfunctional HIV specific CD8+ T cells” value is recorded as “enhanced”, the “number of polyfunctional CD4+ T-cells” value is listed as “increased” and the “proliferation of CD4+ T cells” value was “reduced”. Further, the “Gag antigen epitopes recognized” value is “more”; the “IFN-γ production by CD8+ T-cells and CD4 T-cells” value is recorded as “detectable”.
